Experimental data taken from PubChem BioAssay AID2060627 (Molecular Pharmacology Branch, DTP, NCI, 2025).

system: 156681-154-R-J1-PDC complex spheroid viability; assay: Anticancer human tumor 156681-154-R-J1-PDC patient-derived melanoma cell line growth inhibition [CLK]; details: second compound 0.316 µM; first compound 0.316 µM; active compounds read low
How it was run: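 Multi-cell-type spheroids combined patient-derived tumor cells with HUVEC endothelial cells and human mesenchymal stem cells. Paired agents were dosed in half-log steps down from about clinical Cmax, or from 10 microM where Cmax was unknown.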
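Also: spheroids exposed to the agents for seven days; 100% = DMSO vehicle control viability.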

SMILES	viability, T/C [%]
COc1ccc([C@@H](O)c2cc(-c3ncnc4cc(N5CCOCC5)ccc34)c(F)cc2Cl)nn1 + CNC(=O)c1ccc(Nc2nc(OC3CCCC3)c3c(-c4ccc5nc(C)oc5c4)c[nH]c3n2)c(OC)c1	50.9
COC1C=CCC(C)C(C)S(=O)(=O)NC(=O)c2ccc3c(c2)N(CC2CCC21)CC1(CCCc2cc(Cl)ccc21)CO3 (stereo unspecified) + CN1CCN(c2cc(C(=O)Nc3cc4cc(-c5cnn(C)c5)ccc4cn3)ccn2)CC1	16.7

same assay, conditions: second compound 0.316 µM; first compound 1 µM; active compounds read low

SMILES	viability, T/C [%]
CCc1c2c(nc3ccc(O)cc13)-c1cc3c(c(=O)n1C2)COC(=O)[C@]3(O)CC + CNC(=O)c1ccc(Nc2nc(OC3CCCC3)c3c(-c4ccc5nc(C)oc5c4)c[nH]c3n2)c(OC)c1	5.29
CC(CO)NC(=O)c1cc(-c2ccc(Cl)cc2)nn(-c2cnn(C)c2)c1=O (stereo unspecified) + CNC(=O)c1ccc(Nc2nc(OC3CCCC3)c3c(-c4ccc5nc(C)oc5c4)c[nH]c3n2)c(OC)c1	58.8
Nc1ccn(C2OC(CO)C(O)C2(F)F)c(=O)n1 (stereo unspecified) + CN1CCN(c2cc(C(=O)Nc3cc4cc(-c5cnn(C)c5)ccc4cn3)ccn2)CC1	11.7
COc1ccc([C@@H](O)c2cc(-c3ncnc4cc(N5CCOCC5)ccc34)c(F)cc2Cl)nn1 + CNC(=O)c1ccc(Nc2nc(OC3CCCC3)c3c(-c4ccc5nc(C)oc5c4)c[nH]c3n2)c(OC)c1	52.9
COC1C=CCC(C)C(C)S(=O)(=O)NC(=O)c2ccc3c(c2)N(CC2CCC21)CC1(CCCc2cc(Cl)ccc21)CO3 (stereo unspecified) + CN1CCN(c2cc(C(=O)Nc3cc4cc(-c5cnn(C)c5)ccc4cn3)ccn2)CC1	10.2

same assay, conditions: second compound 0.316 µM; first compound 3.16 µM; active compounds read low

SMILES	viability, T/C [%]
CC(CO)NC(=O)c1cc(-c2ccc(Cl)cc2)nn(-c2cnn(C)c2)c1=O (stereo unspecified) + CNC(=O)c1ccc(Nc2nc(OC3CCCC3)c3c(-c4ccc5nc(C)oc5c4)c[nH]c3n2)c(OC)c1	59.3
Nc1ccn(C2OC(CO)C(O)C2(F)F)c(=O)n1 (stereo unspecified) + CN1CCN(c2cc(C(=O)Nc3cc4cc(-c5cnn(C)c5)ccc4cn3)ccn2)CC1	16.5
COc1ccc([C@@H](O)c2cc(-c3ncnc4cc(N5CCOCC5)ccc34)c(F)cc2Cl)nn1 + CNC(=O)c1ccc(Nc2nc(OC3CCCC3)c3c(-c4ccc5nc(C)oc5c4)c[nH]c3n2)c(OC)c1	28.4
COC1C=CCC(C)C(C)S(=O)(=O)NC(=O)c2ccc3c(c2)N(CC2CCC21)CC1(CCCc2cc(Cl)ccc21)CO3 (stereo unspecified) + CN1CCN(c2cc(C(=O)Nc3cc4cc(-c5cnn(C)c5)ccc4cn3)ccn2)CC1	4.46

same assay, conditions: second compound 0.316 µM; first compound 10 µM; active compounds read low

SMILES	viability, T/C [%]
CC(CO)NC(=O)c1cc(-c2ccc(Cl)cc2)nn(-c2cnn(C)c2)c1=O (stereo unspecified) + CNC(=O)c1ccc(Nc2nc(OC3CCCC3)c3c(-c4ccc5nc(C)oc5c4)c[nH]c3n2)c(OC)c1	38.2
Nc1ccn(C2OC(CO)C(O)C2(F)F)c(=O)n1 (stereo unspecified) + CN1CCN(c2cc(C(=O)Nc3cc4cc(-c5cnn(C)c5)ccc4cn3)ccn2)CC1	9.83
COc1ccc([C@@H](O)c2cc(-c3ncnc4cc(N5CCOCC5)ccc34)c(F)cc2Cl)nn1 + CNC(=O)c1ccc(Nc2nc(OC3CCCC3)c3c(-c4ccc5nc(C)oc5c4)c[nH]c3n2)c(OC)c1	20.7
COC1C=CCC(C)C(C)S(=O)(=O)NC(=O)c2ccc3c(c2)N(CC2CCC21)CC1(CCCc2cc(Cl)ccc21)CO3 (stereo unspecified) + CN1CCN(c2cc(C(=O)Nc3cc4cc(-c5cnn(C)c5)ccc4cn3)ccn2)CC1	1.8

same assay, conditions: second compound 1 µM; first compound 0.00316 µM; active compounds read low

SMILES	viability, T/C [%]
CCc1c2c(nc3ccc(O)cc13)-c1cc3c(c(=O)n1C2)COC(=O)[C@]3(O)CC + CNC(=O)c1ccc(Nc2nc(OC3CCCC3)c3c(-c4ccc5nc(C)oc5c4)c[nH]c3n2)c(OC)c1	21.9

same assay, conditions: second compound 1 µM; first compound 0.01 µM; active compounds read low

SMILES	viability, T/C [%]
CCc1c2c(nc3ccc(O)cc13)-c1cc3c(c(=O)n1C2)COC(=O)[C@]3(O)CC + CNC(=O)c1ccc(Nc2nc(OC3CCCC3)c3c(-c4ccc5nc(C)oc5c4)c[nH]c3n2)c(OC)c1	11.3

same assay, conditions: second compound 1 µM; first compound 0.0316 µM; active compounds read low

SMILES	viability, T/C [%]
CCc1c2c(nc3ccc(O)cc13)-c1cc3c(c(=O)n1C2)COC(=O)[C@]3(O)CC + CNC(=O)c1ccc(Nc2nc(OC3CCCC3)c3c(-c4ccc5nc(C)oc5c4)c[nH]c3n2)c(OC)c1	10.5
CC(CO)NC(=O)c1cc(-c2ccc(Cl)cc2)nn(-c2cnn(C)c2)c1=O (stereo unspecified) + CNC(=O)c1ccc(Nc2nc(OC3CCCC3)c3c(-c4ccc5nc(C)oc5c4)c[nH]c3n2)c(OC)c1	50.8
Nc1ccn(C2OC(CO)C(O)C2(F)F)c(=O)n1 (stereo unspecified) + CN1CCN(c2cc(C(=O)Nc3cc4cc(-c5cnn(C)c5)ccc4cn3)ccn2)CC1	0.16
COc1ccc([C@@H](O)c2cc(-c3ncnc4cc(N5CCOCC5)ccc34)c(F)cc2Cl)nn1 + CNC(=O)c1ccc(Nc2nc(OC3CCCC3)c3c(-c4ccc5nc(C)oc5c4)c[nH]c3n2)c(OC)c1	50.8
COC1C=CCC(C)C(C)S(=O)(=O)NC(=O)c2ccc3c(c2)N(CC2CCC21)CC1(CCCc2cc(Cl)ccc21)CO3 (stereo unspecified) + CN1CCN(c2cc(C(=O)Nc3cc4cc(-c5cnn(C)c5)ccc4cn3)ccn2)CC1	0.2

same assay, conditions: second compound 1 µM; first compound 0.1 µM; active compounds read low

SMILES	viability, T/C [%]
CCc1c2c(nc3ccc(O)cc13)-c1cc3c(c(=O)n1C2)COC(=O)[C@]3(O)CC + CNC(=O)c1ccc(Nc2nc(OC3CCCC3)c3c(-c4ccc5nc(C)oc5c4)c[nH]c3n2)c(OC)c1	14.7
CC(CO)NC(=O)c1cc(-c2ccc(Cl)cc2)nn(-c2cnn(C)c2)c1=O (stereo unspecified) + CNC(=O)c1ccc(Nc2nc(OC3CCCC3)c3c(-c4ccc5nc(C)oc5c4)c[nH]c3n2)c(OC)c1	42.9
Nc1ccn(C2OC(CO)C(O)C2(F)F)c(=O)n1 (stereo unspecified) + CN1CCN(c2cc(C(=O)Nc3cc4cc(-c5cnn(C)c5)ccc4cn3)ccn2)CC1	0.82
COc1ccc([C@@H](O)c2cc(-c3ncnc4cc(N5CCOCC5)ccc34)c(F)cc2Cl)nn1 + CNC(=O)c1ccc(Nc2nc(OC3CCCC3)c3c(-c4ccc5nc(C)oc5c4)c[nH]c3n2)c(OC)c1	55.6
